From patent US9695155B2, “Herbicidal substituted pyrimidinyloxy benzene compounds” (E. I. DU PONT DE NEMOURS AND COMPANY, priority 2013, dated 2017)

Legend:
[1] = test system: large (Lg) crabgrass; assay: Test A preemergence; format: in vivo, Digitaria sanguinalis; settings: for Plant response rating, Crabgrass, Large: 125 g ai/ha; for Crabgrass, Large plant response rating: 500 g ai/ha
Procedure, shortened: (§1)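 Visual injury scored 0–100 (100 = complete control) against untreated controls about 10 days after treatment in a greenhouse. Test chemicals, formulated with surfactant in non-phytotoxic solvent, were sprayed on soil preemergence or on 2-10 cm, one- to two-leaf plants postemergence.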

[2] = test system: barnyardgrass; assay: Test A postemergence; format: in vivo, Echinochloa crus-galli; settings: 0 to 100 scale where 0 is no effect and 100 is complete control
Procedure, shortened: as §1

[3] = test system: velvetleaf; assay: Test A postemergence; format: in vivo, Abutilon theophrasti; settings: 0 to 100 scale where 0 is no effect and 100 is complete control
Procedure, shortened: as §1

[4] = test system: corn; assay: Test A postemergence; format: in vivo, Zea mays; settings: 0 to 100 scale where 0 is no effect and 100 is complete control
Procedure, shortened: as §1

[5] = test system: Italian ryegrass; assay: Test C preemergence; format: in vivo, Lolium multiflorum; settings: for Ryegrass, Italian plant response rating: preemergence
Procedure, shortened: (§2)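 Greenhouse herbicide screen. Pre: seeded loam/sand, sprayed at planting. Post: 1–4 leaf plants (2–18 cm) in peat-based mix. Formulation: solvent mixture + surfactant, non-phytotoxic. Readout: visual % control vs untreated, 13–15 d; dash = not tested.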

[6] = test system: wheat, winter; assay: Test C preemergence; format: in vivo, Triticum aestivum; settings: for Wheat plant response rating: preemergence
Procedure, shortened: as §2

[7] = test system: corn; assay: Test C preemergence; format: in vivo, Zea mays; settings: for Corn plant response rating: preemergence; for Plant response rating, Corn: Preemergence, 31 g ai/ha, scale 0 to 100, 0 no effect, 100 complete control
Procedure, shortened: as §2

[8] = test system: johnsongrass; assay: Test C preemergence; format: in vivo, Sorghum halepense; settings: for Johnsongrass plant response rating: preemergence
Procedure, shortened: as §2

[9] = test system: yellow nutsedge; assay: Test C preemergence; format: in vivo, Cyperus esculentus; settings: for Nutsedge, Yellow plant response rating: preemergence
Procedure, shortened: as §2

[10] = test system: wheat, winter; assay: Test C postemergence; format: in vivo, Triticum aestivum
Procedure, shortened: as §2

[11] = test system: corn; assay: Test C postemergence; format: in vivo, Zea mays; settings: for Corn plant response rating / Plant response rating, Corn: scale 0 to 100 (0 no effect, 100 complete control)
Procedure, shortened: as §2

[12] = test system: large (Lg) crabgrass; assay: Test C postemergence; format: in vivo, Digitaria sanguinalis; settings: for Crabgrass, Large plant response rating / Plant response rating, Crabgrass, Large: scale 0 to 100 (0 no effect, 100 complete control)
Procedure, shortened: as §2

[13] = test system: giant foxtail; assay: Test C postemergence; format: in vivo, Setaria faberii; settings: for Foxtail, Giant plant response rating / Plant response rating, Foxtail, Giant: scale 0 to 100 (0 no effect, 100 complete control)
Procedure, shortened: as §2

[14] = test system: johnsongrass; assay: Test C postemergence; format: in vivo, Sorghum halepense; settings: for Johnsongrass plant response rating / Plant response rating, Johnsongrass: scale 0 to 100 (0 no effect, 100 complete control)
Procedure, shortened: as §2

[15] = test system: yellow nutsedge; assay: Test C postemergence; format: in vivo, Cyperus esculentus
Procedure, shortened: as §2

[16] = 0 to 100 scale where 0 is no effect and 100 is complete control
[17] = 16 g ai/ha, scale 0 to 100 (0 no effect, 100 complete control)
[18] = 62 g ai/ha, scale 0 (no effect) to 100 (complete control)
[19] = 125 g ai/ha, scale 0 (no effect) to 100 (complete control)
[20] = Preemergence, 31 g ai/ha, scale 0 to 100, 0 no effect, 100 complete control
[21] = Postemergence, 31 g ai/ha, scale 0 to 100 (0 no effect, 100 complete control), 13 to 15 days
[22] = Postemergence, 62 g ai/ha, scale 0 to 100 (0 no effect, 100 complete control)
[23] = 16 g ai/ha, postemergence, visual rating, 13 to 15 days
[24] = Postemergence, 31 g ai/ha, 13 to 15 days
[25] = 16 g ai/ha, postemergence, 0 is no effect, 100 is complete control
[26] = 31 g ai/ha, postemergence, visual rating, scale 0 to 100 (0 no effect, 100 complete control), 13 to 15 days
[27] = 125 g ai/ha, postemergence, visual rating, scale 0 to 100 (0 no effect, 100 complete control)
[28] = 31 g ai/ha, postemergence, visual rating, 13 to 15 days
[29] = 125 g ai/ha, postemergence, visual rating

N#Cc1cccc(Oc2ncc(Cl)cn2)c1-n1cc(OC(F)F)cn1 [Compound 97]
Plant response rating, Crabgrass, Large [1, 16]: 100
Crabgrass, Large plant response rating ([1]; 0 to 100 scale, 0 no effect, 100 complete control, approx. 10 days): 100
Plant response rating, Barnyardgrass ([2]; 125 g ai/ha): 90
Plant response rating, Barnyardgrass ([2]; 500 g ai/ha): 100
Plant response rating, Velvetleaf ([3]; 125 g ai/ha): 100
Plant response rating, Velvetleaf ([3]; 500 g ai/ha): 100
Plant response rating, Corn ([4]; 125 g ai/ha): 60
Plant response rating, Corn ([4]; 500 g ai/ha): 90
Ryegrass, Italian plant response rating [5, 17]: 0
Ryegrass, Italian plant response rating [5, 18]: 85
Ryegrass, Italian plant response rating [5, 19]: 90
Plant response rating, Ryegrass, Italian [5, 20]: 60
Wheat plant response rating [6, 17]: 0
Wheat plant response rating [6, 18]: 60
Wheat plant response rating [6, 19]: 90
Plant response rating, Wheat [6, 20]: 10
Corn plant response rating [7, 17]: 0
Corn plant response rating [7, 18]: 45
Corn plant response rating [7, 19]: 80
Plant response rating, Corn [7]: 5
Johnsongrass plant response rating [8, 17]: 10
Johnsongrass plant response rating [8, 18]: 90
Johnsongrass plant response rating [8, 19]: 90
Plant response rating, Johnsongrass [8, 20]: 40
Nutsedge, Yellow plant response rating [9, 17]: 10
Nutsedge, Yellow plant response rating [9, 18]: 60
Nutsedge, Yellow plant response rating [9, 19]: 90
Plant response rating, Nutsedge, Yellow [9, 20]: 20
Plant response rating (0 to 100), Wheat ([10]; 125 g ai/ha, postemergence): 10
Plant response rating, Wheat [10, 21]: 5
Plant response rating, Wheat [10, 22]: 5
Corn plant response rating [11, 23]: 5
Plant response rating (0 to 100), Corn ([11]; 125 g ai/ha, postemergence): 15
Plant response rating, Corn [11, 24]: 5
Plant response rating, Corn ([11]; Postemergence, 62 g ai/ha): 10
Crabgrass, Large plant response rating [12, 23]: 5
Plant response rating (0 to 100), Crabgrass, Large ([12]; 125 g ai/ha, postemergence): 55
Plant response rating, Crabgrass, Large [12, 24]: 10
Plant response rating, Crabgrass, Large ([12]; Postemergence, 62 g ai/ha): 15
Foxtail, Giant plant response rating [13, 23]: 10
Plant response rating (0 to 100), Foxtail, Giant ([13]; 125 g ai/ha, postemergence): 15
Plant response rating, Foxtail, Giant [13, 24]: 5
Plant response rating, Foxtail, Giant ([13]; Postemergence, 62 g ai/ha): 10
Johnsongrass plant response rating [14, 23]: 5
Plant response rating (0 to 100), Johnsongrass ([14]; 125 g ai/ha, postemergence): 5
Plant response rating, Johnsongrass [14, 24]: 5
Plant response rating, Johnsongrass ([14]; Postemergence, 62 g ai/ha): 15
Plant response rating (0 to 100), Nutsedge, Yellow ([15]; 125 g ai/ha, postemergence): 5
Plant response rating, Nutsedge, Yellow [15, 21]: 5
Plant response rating, Nutsedge, Yellow [15, 22]: 5

Fc1cnc(Oc2cccc(C(F)F)c2-n2cc(C(F)(F)F)cn2)nc1 [Compound 164]
Plant response rating, Crabgrass, Large [1, 16]: 100
Crabgrass, Large plant response rating [1, 16]: 100
Barnyardgrass plant response rating ([2]; 125 g ai/ha): 70
Plant response rating, Barnyardgrass ([2]; 500 g ai/ha): 100
Velvetleaf plant response rating ([3]; 125 g ai/ha): 100
Plant response rating, Velvetleaf ([3]; 500 g ai/ha): 100
Corn plant response rating ([4]; 125 g ai/ha): 40
Plant response rating, Corn ([4]; 500 g ai/ha): 90
Ryegrass, Italian plant response rating [5, 17]: 0
Ryegrass, Italian plant response rating [5, 18]: 65
Ryegrass, Italian plant response rating [5, 19]: 98
Wheat plant response rating [6, 17]: 0
Wheat plant response rating [6, 18]: 30
Wheat plant response rating [6, 19]: 35
Corn plant response rating [7, 17]: 0
Corn plant response rating [7, 18]: 5
Corn plant response rating [7, 19]: 45
Plant response rating, Corn [7]: 5
Johnsongrass plant response rating [8, 17]: 5
Johnsongrass plant response rating [8, 18]: 75
Johnsongrass plant response rating [8, 19]: 80
Nutsedge, Yellow plant response rating [9, 17]: 0
Nutsedge, Yellow plant response rating [9, 18]: 20
Nutsedge, Yellow plant response rating [9, 19]: 25
Plant response rating (0 to 100), Wheat [10, 25]: 0
Wheat plant response rating [10, 26]: 0
Plant response rating, Wheat [10, 27]: 0
Plant response rating, Wheat [10, 22]: 0
Plant response rating (0 to 100), Corn [11, 25]: 0
Corn plant response rating [11, 28]: 5
Plant response rating, Corn [11, 29]: 5
Plant response rating, Corn ([11]; Postemergence, 62 g ai/ha): 5
Plant response rating (0 to 100), Crabgrass, Large [12, 25]: 5
Crabgrass, Large plant response rating [12, 28]: 5
Plant response rating, Crabgrass, Large [12, 29]: 10
Plant response rating, Crabgrass, Large ([12]; Postemergence, 62 g ai/ha): 5
Plant response rating (0 to 100), Foxtail, Giant [13, 25]: 0
Foxtail, Giant plant response rating [13, 28]: 20
Plant response rating, Foxtail, Giant [13, 29]: 10
Plant response rating, Foxtail, Giant ([13]; Postemergence, 62 g ai/ha): 10
Plant response rating (0 to 100), Johnsongrass [14, 25]: 0
Johnsongrass plant response rating [14, 28]: 0
Plant response rating, Johnsongrass [14, 29]: 10
Plant response rating, Johnsongrass ([14]; Postemergence, 62 g ai/ha): 5
Plant response rating (0 to 100), Nutsedge, Yellow [15, 25]: 5
Nutsedge, Yellow plant response rating [15, 26]: 5
Plant response rating, Nutsedge, Yellow [15, 27]: 5
Plant response rating, Nutsedge, Yellow [15, 22]: 5
